# Reference: US20220323443A1, “COMBINATION THERAPY FOR CANCER TREATMENT” (TAKEDA PHARMACEUTICAL COMPANY LIMITED, priority 2019, published 2022)
# Tests used:
# [1] = test system: COLO205 cancer cells; test: In vitro combination study with Compound 1, Cell Titer-Glo (ATP) cell viability, 72 h; assay type: cell-based, human; conditions: Table 5 drug combined with Compound 1; 72 h;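 note: Ten-by-ten dose matrices of both agents in duplicate plus single-agent dilutions, luminescent ATP read-out, percent activity per well relative to DMSO vehicle wells, synergy call from these matrices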
# [2] = test system: PHTXM-35Es human primary esophagus cancer xenografts; test: In vivo combination study, Patient Derived Xenograft; set-up: species or system mouse; conditions: for Result (combination with Compound 1, tumor growth): drug 10 mg/kg intravenously once weekly Days 1,8,15
# Protocol: (§1) To investigate in vivo antitumor activity of Compound 1 in combination with other agents, tests using Cell Derived Xenograft (CDX), Patient Derived Xenograft (PDX) and Syngeneic mouse tumor isograft model were conducted. Cells or Patient Derived Tumors were inoculated by one method of the following two methods (Method A and B) as shown Table 7.
# (§2) Method A; Cells were maintained in either immune deficient nude mice or immune competent mice by subcutaneous inoculation of tumor cells at various concentrations into respected mice. Method B: Patient Derived Tumor s were maintained in nude mice by subcutaneous inoculation of tumor pieces (approx. 2×2×2 mm) into nude mice. Mice with tumor size of approximately 50 mm^3 (e.g., 40-75 mm^3) for syngeneic mouse studies or 200 mm^3 (e.g., 110-270 mm^3) for xenograft studies were randomly assigned to dose groups on the day (Day 0) before start date of dosing.
# (§3) Compound 1 (crystalline form I) was suspended in 0.5 w/v % methylcellulose and administered orally to mice. Antibodies which administered in the experiment were described in Table 8.
# (§4) Tumor size was measured by caliper and tumor volume was estimated using the equation V=(LW^2)/2, where L and W are tumor length and width, respectively and reported in cubic millimeters.
# (§5) These values were compared across treatment groups to assess whether the differences in the trends over time were statistically significant. To compare pairs of treatment groups, the following mixed-effects linear regression model was fit to the data using the maximum likelihood method:
# (§6) For synergy analyses, the observed differences in the log tumor values were used to calculate AUC values for each animal. In instances when an animal in a treatment group was removed from the study, the last observed tumor value was carried forward through all subsequent time points. The AUC for the control, or vehicle, group was calculated using the predicted values from the pairwise models described above. We defined a measure of synergy as follows:
# (§7) where Ak and Bk are the k^th animal in the individual treatment groups and ABk is the k^th animal in combination treatment group. AUCcd is the model-predicted AUC for the control group and was treated as a constant with no variability. The standard error of the synergy score was calculated as the square root of the sum of squared standard errors across groups A, B, and AB. The degrees of freedom were estimated using the Welch-Satterthwaite equation. A hypothesis test was performed to determine if the synergy score differed from 0. P values were calculated by dividing the synergy score by its standard error and tested against a t-distribution (two-tailed) with the above-calculated degrees of freedom.
# (§8) The effect was classified into four different categories. It was considered synergistic if the synergy score was less than 0 and additive if the synergy score wasn't statistically different from 0. If the synergy score was greater than zero, but the mean AUC for the combination was lower than the lowest mean AUC among the two single agent treatments, then the combination was sub-additive. If the synergy score was greater than zero, and the mean AUC for the combination was greater than the mean AUC for at least one of the single agent treatments, then the combination was antagonistic.
# [3] = test system: PHTXM-90Es (Esophagus); test: as above; set-up: species or system mouse; conditions: PHTXM-90Es (220 mm^3), drug 10 mg/kg intravenously once weekly Days 1,8,15
# Protocol: as §1, §2, §3, §4, §5, §6, §7, §8
# [4] = test system: DU-145 (Prostate); test: In vivo combination study, Cell Derived Xenograft; set-up: species or system mouse; conditions: DU-145 (165 mm^3); Compound 1 60 mg/kg once daily Day 1-21; drug 10 mg/kg intravenously once weekly Days 1,8,15
# Protocol: as §1
# Method A; Cells were maintained in either immune deficient nude mice or immune competent mice by subcutaneous inoculation of tumor cells at various concentrations into respected mice. Method B: Patient Derived Tumor s were maintained in nude mice by subcutaneous inoculation of tumor pieces (approx. 2×2×2 mm) into nude mice. […]
# Tumor size was measured by caliper and tumor volume was estimated using the equation V=(LW^2)/2, where L and W are tumor length and width, respectively and reported in cubic millimeters. […]
# For synergy analyses, the observed differences in the log tumor values were used to calculate AUC values for each animal. […] The AUC for the control, or vehicle, group was calculated using the predicted values from the pairwise models described above. […]
# where Ak and Bk are the k^th animal in the individual treatment groups and ABk is the k^th animal in combination treatment group. […] The standard error of the synergy score was calculated as the square root of the sum of squared standard errors across groups A, B, and AB. […]
# [5] = test system: A549 cancer cells; test: In vitro combination study with Compound 1, Cell Titer-Glo (ATP) cell viability, 72 h; assay type: cell-based; conditions: Table 5 drug combined with Compound 1; 72 h;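 note: Ten-by-ten dose matrices of the two agents in duplicate, compounds added 16 h post-plating, activity relative to DMSO vehicle wells, call reflects synergy evaluation from luminescence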
# Protocol: (§9) Each combination pair was evaluated in an individual 384-well plate which contained variable doses of both compounds as single agents, as well as two, ten-by-ten matrices (in duplicate) that contained mixtures of the two test compounds. In brief, compounds were added to the cell test plates 16 hours after cell plating and then assessed for viability 72 hours later. Continuous cultures of tumor cells were maintained under standard cell culturing conditions (i.e. in a humidified chamber set at 37° C., containing atmosphere 5% carbon dioxide). […] Seventy-two hours after compound addition, ATP levels were measured to assess cell viability. Plating densities were chosen to ensure optimal linear growth over the 72 hour period.
# (§10) Compound dilution and compound delivery to the assay plates were done on HighRes Robotic System (HighRes Biosolutions, Woburn, Mass., USA) with Echo™ Liquid Handler (Labcyte, Sunnyvale, Calif., USA). […] Next, these were used for compound transfer into cell assay plates. All wells were back-filled to give a constant percentage of DMSO.
# (§11) The final DMSO concentration was held constant in all wells across the plate and was maintained at less than 0.5%. […] Cells treated with vehicle (DMSO) in two rows, or single compound serial dilutions in one plate columns/row served as the untreated control and single compound controls, respectively.
# (§12) Compound activity in A549, COLO205, H460, HCT116, SW48, SW620 cancer cell lines was assessed using Cell Titer-Glo® (Promega [Madison, Wis., USA]). After 72 hours incubation, the plates were treated as per package insert protocol for the Promega Luminescence ATP Detection Systems. Briefly, 25 μL of cell lysis/substrate solution (provided in kit form) was added to each well and the plate was incubated at room temperature for 10 minutes. Luminescence was measured using a PHERAstar multi-label counter (BMG Labtech [Ortenberg, Germany]) or LEADseeker (GE Healthcare Life Sciences [Piscataway, N.J., USA]).
# (§13) Numerical luminescence values were analyzed to generate EC50 curves and evaluate synergy. Raw Data reader files were uploaded along with automation workfiles that defined the plate and well contents. Percent activities were calculated for each well versus plate controls.
# (§14) Each plate representing a single drug combination was analyzed separately. First, the viability measurements were normalized by scaling the data so that the median of the negative controls was 0 and the median of the positive controls was 100.
# (§15) For the combination analysis, a response surface model was used to describe the relationship between the normalized viability and the drug concentrations. The data were fit to the model by minimizing the residual sum of squares. Based on the fitted response surface, plots of constant viability, called isobolograms, were produced.
# (§16) The Combination Index and Nonlinear Blending were used as measures of drug synergy. To calculate Combination Index the 50% isobologram (which is the dose contour that has 50% viability) was used. […] A standard procedure was created to produce a call in order to characterize the viability effects for each combination (synergy, additivity, subadditivity, or antagonism). If the Combination Index existed then these measures were used to make the call.
# [6] = test system: HCT116 cancer cells; test: as above; assay type: cell-based; conditions: Table 5 drug combined with Compound 1; 72 h;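 note: combination call from 10×10 dose matrices in duplicate, graded by synergy, with percent activity per well relative to DMSO vehicle controls on the same plate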
# Protocol: as §9, §10, §11, §12, §13, §14, §15, §16
# [7] = test system: PHTXM-79Es human primary esophagus cancer xenografts; test: In vivo combination study, Patient Derived Xenograft; set-up: species or system mouse; key to Result (combination with Compound 1, tumor growth): synergistic if the synergy score was less than 0; additive if the synergy score wasn't statistically different from 0; If the synergy score was greater than zero, but the mean AUC for the combination was lower than the lowest mean AUC among the two single agent treatments, then the combination was sub-additive; If the synergy score was greater than zero, and the mean AUC for the combination was greater than the mean AUC for at least one of the single agent treatments, then the combination was antagonistic; conditions: for Result (combination with Compound 1, tumor growth): PHTX-79Es (135 mm^3) FIG. 5A, drug 10 mg/kg intravenously once weekly Days 1,8,15
# Protocol: as §1, §2, §3, §4, §5, §6, §7, §8
# [8] = test system: SW620 cancer cells; test: In vitro combination study with Compound 1, Cell Titer-Glo (ATP) cell viability, 72 h; assay type: cell-based; conditions: Table 5 drug combined with Compound 1; 72 h;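 note: Ten-by-ten dose matrices of both drugs in 384-well plates, luminescent ATP read-out, synergy evaluated against single-agent and DMSO vehicle controls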
# Protocol: as §9, §10, §11, §12, §13, §14, §15, §16
# [9] = test system: H460 cancer cells; test: as above; assay type: cell-based; conditions: Table 5 drug combined with Compound 1; 72 h;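 note: Ten-by-ten dose matrices of both drugs alongside single-agent dilutions, luminescence read 72 hours after compound addition, percent activity per well versus vehicle (DMSO) plate controls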
# [10] = Compound 1 40 mg/kg once daily Day 1-21
# [11] = Compound 1 60 mg/kg once daily Day 1-21
compound,measurement,setting,value
CC(=O)O[C@@]12CO[C@@H]1C[C@H](O)[C@@]1(C)C(=O)[C@H](O)C3=C(C)[C@@H](OC(=O)[C@H](O)[C@@H](NC(=O)OC(C)(C)C)c4ccccc4)C[C@@](O)([C@@H](OC(=O)c4ccccc4)[C@H]21)C3(C)C [Docetaxel],"Call, anti-proliferative effect of combination with Compound 1, COLO205",[1],Additivity (0.7 to 1.3)
same,"Result (combination with Compound 1, tumor growth)","[2]; PHTXM-35Es (150 mm^3) FIG. 4B, Compound 1 40 mg/kg once daily Day 1-21",Synergistic
same,"Result (combination with Compound 1, tumor growth)","[2]; PHTXM-35Es (150 mm^3) FIG. 4B, Compound 1 60 mg/kg once daily Day 1-21",Additive
same,"Result (combination with Compound 1, tumor growth)","[2]; PHTXM-35Es (190 mm^3), Compound 1 40 mg/kg once daily Day 1-21",Synergistic
same,"Result (combination with Compound 1, tumor growth)","[2]; PHTXM-35Es (190 mm^3), Compound 1 60 mg/kg once daily Day 1-21",Synergistic
same,antitumor activity,"[2]; combined with Compound 1, PHTXM-35Es human primary esophagus cancer xenografts, FIG. 4B",strong antitumor activity compared to either single treatment alone
same,"Result (combination with Compound 1, tumor growth)",[3]; [10],Additive
same,"Result (combination with Compound 1, tumor growth)",[3]; [11],Additive
same,"Result (combination with Compound 1, tumor growth)",[4],Additive
same,"Call, anti-proliferative effect of combination with Compound 1, A549",[5],Subadditivity (1.3 to 2)
same,"Call, anti-proliferative effect of combination with Compound 1, HCT116",[6],Additivity (0.7 to 1.3)
same,"Result (combination with Compound 1, tumor growth)",[7]; [10],Synergistic
same,"Result (combination with Compound 1, tumor growth)",[7]; [11],additive
same,antitumor activity,"[7]; combined with Compound 1, PHTXM-79Es human primary esophagus cancer xenografts, FIG. 5A",strong antitumor activity compared to either single treatment alone
same,"Call, anti-proliferative effect of combination with Compound 1, SW620",[8],Synergy (0 to 0.7)
same,"Call, anti-proliferative effect of combination with Compound 1, H460",[9],Additivity (0.7 to 1.3)
